Assay results from patent US20220324835A1 (Nurix Therapeutics, Inc., priority 2018, published 2022).

Experiments:
[1] = target: T1, Cbl-b (Homo sapiens, UniProt Q13191); assay: Cbl-b inhibition assay (Cbl-b activity assay, FRET, Biological Example 1; 100 mM NaCl, 60 nM Src kinase); type: biochemical; details: upper bound stated in text lists; read-out: IC50 values in the Cbl-b inhibition assay of Biological Example 1
Summary of the method: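 Inhibitor activity is measured as reduced terbium-to-fluorescein FRET between streptavidin-terbium on biotinylated Cbl-b and Bodipy-fluorescein ubiquitin carried by an irreversible UbcH5B-Ub conjugate, binding of which depends on Src phosphorylation of Cbl-b.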

[2] = tested on: T-cell; assay: IL-2 secretion from T-cells co-stimulated with anti-CD3 and anti-CD28 antibody (Biological Example 2); type: cell-based, human; details: Homo sapiens, T-cell, primary human total T-cells, baseline = anti-CD3/anti-CD28 stimulated cells without inhibitor, read-out: IL-2 secretion, Anti-CD3/Anti-CD28 stimulation, fold change over baseline; for fold induction at 0.3 µM: 0.3 μM compound; for fold induction at 1 µM: 1 μM compound
Summary of the method: (§1)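 No assay protocol given; T-cells stimulated with anti-CD3 alone or anti-CD3 plus anti-CD28, with or without Cbl-b inhibitor. Activation read as IL-2 secretion or CD25 surface staining, expressed as fold over baseline from uninhibited cells […].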

[3] = tested on: T-cell; assay: CD25 cell surface staining on T-cells co-stimulated with anti-CD3 and anti-CD28 antibody (Biological Example 2); type: cell-based, human; details: Homo sapiens, T-cell, primary human total T-cells, baseline = anti-CD3/anti-CD28 stimulated cells without inhibitor, read-out: CD25 staining, Anti-CD3/Anti-CD28 stimulation, fold change over baseline; for fold induction at 0.3 µM: 0.3 μM compound; for fold induction at 1 µM: 1 μM compound
Summary of the method: as §1

[4] = target: T1, Cbl-b; assay: Cbl-b activity assay (Cbl-b inhibition assay), TR-FRET of Cbl-b interaction with UbcH5B-Ub; type: biochemical; details: assay buffer with 100 mM NaCl, 60 nM Src kinase; read-out: Cbl-b activity IC50
Summary of the method: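 TR-FRET readout of Cbl-b binding to Bodipy-fluorescein N-terminally labeled Ub conjugated to UbcH5B C85K, measured with compound present. After compound incubation, 60 nM Src kinase with 1 mM ATP and 5 mM MgCl2 (final) was added for 1.5 h, then a further 1 h incubation; asterisked values used 50 mM NaCl buffer and 30 nM Src.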

[5] = tested on: T-cell; assay: IL-2 secretion from T-cells stimulated with anti-CD3 antibody alone (Biological Example 2); type: cell-based; details: 1 μM compound, primary human total T-cells, read-out: IL-2 secretion, Anti-CD3 stimulation, fold change over baseline
[6] = tested on: T-cell; assay: CD25 cell surface staining on T-cells stimulated with anti-CD3 antibody alone (Biological Example 2); type: cell-based; details: 1 μM compound, primary human total T-cells, baseline = anti-CD3/anti-CD28 stimulated cells without inhibitor, read-out: CD25 staining, Anti-CD3 stimulation, fold change over baseline

T1 sequence (Q13191 36-427): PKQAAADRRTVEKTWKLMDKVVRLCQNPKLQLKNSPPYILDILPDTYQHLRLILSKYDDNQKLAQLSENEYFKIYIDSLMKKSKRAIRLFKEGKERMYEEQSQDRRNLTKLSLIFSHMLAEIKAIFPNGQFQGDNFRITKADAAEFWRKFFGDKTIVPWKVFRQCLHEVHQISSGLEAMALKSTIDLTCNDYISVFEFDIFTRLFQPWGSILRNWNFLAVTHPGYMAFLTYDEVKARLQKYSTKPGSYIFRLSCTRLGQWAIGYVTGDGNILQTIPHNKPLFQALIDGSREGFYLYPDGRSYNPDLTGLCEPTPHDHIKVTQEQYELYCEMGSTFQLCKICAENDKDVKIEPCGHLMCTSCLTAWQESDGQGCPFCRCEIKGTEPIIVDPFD

Structure (SMILES)	IC50 [1]	fold induction at 0.3 µM [2]	fold induction at 1 µM [2]	fold induction at 0.3 µM [3]	fold induction at 1 µM [3]	IC50 [4]	fold induction at 1 µM [5]	fold induction at 1 µM [6]
CC[C@@H](c1cc2c(c(C(F)(F)F)c1)CN(c1cccc(C3(Cc4nncn4C)COC3)c1)C2=O)N1CC[C@H](F)C1 [Example 545, 6-((S)-1-((S)-3-fluoropyrrolidin-1-yl)propyl)-2-(3-(3-((4-methyl-4H-1,2,4-triazol-3-yl)methyl)oxetan-3-yl)phenyl)-4-(trifluoromethyl)isoindolin-1-one]	≤ 100 nM	> 7.5	> 7.5	1.51 to 1.75	1.51 to 1.75	< 100 nM	> 0.201	> 1
CC[C@H](c1cc2c(c(C(F)(F)F)c1)CN(c1cccc(C3(Cc4nncn4C)COC3)c1)C2=O)N1CC[C@H](F)C1 [Example 546, 6-((R)-1-((S)-3-fluoropyrrolidin-1-yl)propyl)-2-(3-(3-((4-methyl-4H-1,2,4-triazol-3-yl)methyl)oxetan-3-yl)phenyl)-4-(trifluoromethyl)isoindolin-1-one]	≤ 100 nM	> 7.5	> 7.5	1.51 to 1.75	1.51 to 1.75	< 100 nM	> 0.201	> 1
Cn1cnnc1CC1(c2cccc(N3Cc4c(cc(C(F)(F)CO)cc4C(F)(F)F)C3=O)c2)COC1 [Example 547, 6-(1,1-difluoro-2-hydroxyethyl)-2-(3-(3-((4-methyl-4H-1,2,4-triazol-3-yl)methyl)oxetan-3-yl)phenyl)-4-(trifluoromethyl)isoindolin-1-one]	≤ 100 nM	1.01 to 2.5	1.01 to 2.5	1.01 to 1.3	1.01 to 1.3	< 100 nM	0.101 to 0.15	0.801 to 1
CN(c1cc2c(c(C(F)(F)F)c1)CN(c1cccc([C@@](C)(F)C(F)(F)c3nncn3C)c1)C2=O)[C@@H]1CNC[C@@H]1F [Example 548, 6-(((3R,4S)-4-fluoropyrrolidin-3-yl)(methyl)amino)-2-(3-((R)-1,1,2-trifluoro-1-(4-methyl-4H-1,2,4-triazol-3-yl)propan-2-yl)phenyl)-4-(trifluoro-methyl)isoindolin-1-one]	≤ 300 nM	1.01 to 2.5	2.51 to 5	1.01 to 1.3	1.01 to 1.3	100 to 300 nM	0.101 to 0.15	0.601 to 0.8
CN(c1cc2c(c(C(F)(F)F)c1)CN(c1cccc([C@@](C)(F)C(F)(F)c3nncn3C)c1)C2=O)[C@H]1CNC[C@H]1F [Example 549, 6-(((3S,4R)-4-fluoropyrrolidin-3-yl)(methyl)amino)-2-(3-((R)-1,1,2-trifluoro-1-(4-methyl-4H-1,2,4-triazol-3-yl)propan-2-yl)phenyl)-4-(trifluoromethyl)iso-indolin-1-one]	≤ 300 nM	1.01 to 2.5	2.51 to 5	1.01 to 1.3	1.31 to 1.5	100 to 300 nM	0.151 to 0.2	0.801 to 1
C[C@@H](c1cc2c(c(C(F)(F)F)c1)CN(c1cccc(C3(Cc4nncn4C)COC3)c1)C2=O)N1CCC2(CC1)CC2 [Example 558a, (S)-6-(1-(6-azaspiro[2.5]octan-6-yl)ethyl)-2-(3-(3-((4-methyl-4H-1,2,4-triazol-3-yl)methyl)oxetan-3-yl)phenyl)-4-(trifluoromethyl)isoindolin-1-one]	≤ 100 nM	> 7.5	> 7.5	1.01 to 1.3	1.01 to 1.3	< 100 nM	> 0.201	> 1
